Where no end group is shown, it is not given here.
What was measured:
E. faecalis WW6 [1] = format: cell-based, Enterococcus faecalis; conditions: E. faecalis WW6; spotted from MIC plates on Mueller-Hinton agar, overnight, no colonies
S. aureus DSM 1104 SCV [2] = format: cell-based, Staphylococcus aureus; conditions: spotted from MIC plates on Mueller-Hinton agar, overnight, no colonies
Procedure: MBC was determined directly after the MIC evaluation.

E. faecium VRE2 = format: cell-based, Enterococcus faecium; conditions: E. faecium VRE2; spotted from MIC plates on Mueller-Hinton agar, overnight, no colonies
human erythrocytes = assay: Haemolysis assay; format: cell-based; conditions: 0.25% human erythrocyte suspension, 37 °C, 30 min, A540, relative to 0.1% Triton X-100
Procedure: Haemolytic activity was determined with a serial 2-fold dilution assay. Citrate phosphate dextrose-stabilized human erythrocyte suspensions were obtained from Karlsruhe Municipal Hospital. […] The mixture was pelleted (13 000 rpm, 10 min, 4 °C), and the absorbance of the supernatant was recorded at 540 nm vs. reaction buffer. The extent of haemolysis was related to the action of 0.1% Triton X-100 (100%).

Danio rerio embryos = assay: Acute toxicity in Danio rerio embryos; format: in vivo; conditions: zebrafish embryos 72 hpf, E3 medium, heart beat
Procedure: Experiments were performed in accordance with the relevant OECD testing guidelines[73] and German animal protection standards. Wild type D. rerio embryos were obtained at the European Zebrafish Resource Center (Karlsruhe). Fertilized eggs (6 hpf) were raised in 4 ml of embryonic medium (E3) at 28 °C until 72 hpf (6-well plate, 20 eggs/well). Embryos were transferred into flat-bottom glass vials (E3, 1 ml, 15–20 embryos/vial). Peptides were added as 20 µl aliquots in 10% dimethyl sulfoxide in serial 2-fold dilutions. Toxicity was expressed as the concentration at which 50% of the embryos were visually observed to die (measured at 1 and 3 hours exposure) by identifying the heart beat.

S. aureus MRSA4 = format: cell-based, Staphylococcus aureus; conditions: S. aureus MRSA4; spotted from MIC plates on Mueller-Hinton agar, overnight, no colonies
S. aureus MRSA9 = format: cell-based, Staphylococcus aureus; conditions: S. aureus MRSA9; spotted from MIC plates on Mueller-Hinton agar, overnight, no colonies
S. aureus DSM 1104 SCV [3] = format: cell-based, Staphylococcus aureus; conditions: value in parentheses
Procedure: (§1) This parameter quantifies the ability of the peptides to prevent biofilm outgrowth.
(§2) After co-incubation with peptides at 37 °C and 5% CO2 without agitation for 24 hours, the planktonic cells were washed, and Crystal violet staining was applied.

E. faecalis TRE1 = format: cell-based, Enterococcus faecalis; conditions: E. faecalis TRE1; spotted from MIC plates on Mueller-Hinton agar, overnight, no colonies
S. aureus DSM 1104 [4] = format: cell-based, Staphylococcus aureus; conditions: S. aureus DSM 1104; 10 µl from MIC plates spotted on Mueller-Hinton agar, overnight 37 °C, no colonies on two plates
E. faecalis WW4 = format: cell-based, Enterococcus faecalis; conditions: E. faecalis WW4; spotted from MIC plates on Mueller-Hinton agar, overnight, no colonies
E. faecalis TRE4 = format: cell-based, Enterococcus faecalis; conditions: E. faecalis TRE4; spotted from MIC plates on Mueller-Hinton agar, overnight, no colonies
E. faecalis TRE2 [5] = format: cell-based, Enterococcus faecalis; conditions: E. faecalis TRE2; spotted from MIC plates on Mueller-Hinton agar, overnight, no colonies
S. aureus MRSA8 SCV [6] = conditions: spotted from MIC plates on Mueller-Hinton agar, overnight, no colonies
Procedure: (§3) MBC was determined directly after the MIC evaluation. The 10 µl samples of all 8 dilution rows in the microtiter plates were spotted on square Mueller-Hinton agar plates and incubated overnight at 37 °C and 5% CO2. The MBC was determined as the concentration at which no bacterial colonies were obtained on the two parallel spotted plates.

S. aureus MRSA538 SCV = conditions: spotted from MIC plates on Mueller-Hinton agar, overnight, no colonies
Procedure: as §3

S. aureus MRSA9 SCV = conditions: spotted from MIC plates on Mueller-Hinton agar, overnight, no colonies
Procedure: as §3

[7] = system: α1-acid glycoprotein (AGP); assay: AGP binding, biomimetic chromatography; conditions: Chiralpak-AGP column
Procedure: (§4) HPLC was performed on an Agilent 1100 system with an ultraviolet diode array detector. […] Binding measurements were performed using Regis Technologies IAM.PC.DD2 (100 × 4.6 mm), HiChrom Chiralpak-HSA (50 × 3 mm) and HiChrom Chiralpak-AGP (50 × 3 mm) columns. […] Retention times were converted to log k and % binding, using calibration routines described in[72].

S. aureus MRSA3 = format: cell-based, Staphylococcus aureus; conditions: S. aureus MRSA3; spotted from MIC plates on Mueller-Hinton agar, overnight, no colonies
E. faecalis DSM 2570 [8] = format: cell-based, Enterococcus faecalis; conditions: E. faecalis DSM 2570; spotted from MIC plates on Mueller-Hinton agar, overnight, no colonies
E. faecalis WW6 [9] = conditions: E. faecalis WW6; Todd-Hewitt broth, 5 × 10^7 CFU/ml, 24 h, 37 °C, Crystal violet
Procedure: as §1, §2

S. aureus MRSA8 SCV [10] = conditions: value in parentheses
Procedure: as §1, §2

S. aureus DSM 1104 [11] = conditions: S. aureus DSM 1104; value in parentheses
Procedure: as §1, §2

E. faecalis DSM 2570 [12] = conditions: E. faecalis DSM 2570; value in parentheses
Procedure: as §1, §2

E. faecalis TRE2 [13] = conditions: E. faecalis TRE2; value in parentheses
Procedure: as §1, §2

[14] = Chromatographic hydrophobicity index (CHI), C18
Procedure: as §4

[15] = biological target: human serum albumin (HSA) (Homo sapiens, UniProt P02768); assay: HSA binding, biomimetic chromatography; conditions: Chiralpak-HSA column
human serum albumin (HSA), sequence (P02768 25-609): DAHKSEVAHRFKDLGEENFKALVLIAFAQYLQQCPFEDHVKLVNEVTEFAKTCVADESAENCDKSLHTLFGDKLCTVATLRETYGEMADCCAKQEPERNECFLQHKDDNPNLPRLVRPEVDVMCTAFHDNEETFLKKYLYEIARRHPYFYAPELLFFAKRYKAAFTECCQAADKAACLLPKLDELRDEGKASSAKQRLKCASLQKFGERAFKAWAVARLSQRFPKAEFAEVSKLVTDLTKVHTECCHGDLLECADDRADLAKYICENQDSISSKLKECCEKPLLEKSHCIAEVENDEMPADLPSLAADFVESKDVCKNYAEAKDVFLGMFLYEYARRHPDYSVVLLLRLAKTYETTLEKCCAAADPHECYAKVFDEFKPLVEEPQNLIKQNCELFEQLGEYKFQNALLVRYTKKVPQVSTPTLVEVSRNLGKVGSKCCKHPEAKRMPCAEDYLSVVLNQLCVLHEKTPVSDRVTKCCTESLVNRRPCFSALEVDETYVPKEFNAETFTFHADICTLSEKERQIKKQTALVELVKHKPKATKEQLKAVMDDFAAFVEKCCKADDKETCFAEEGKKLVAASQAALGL
Procedure: as §4

E. faecium VRE1 = format: cell-based, Enterococcus faecium; conditions: E. faecium VRE1; spotted from MIC plates on Mueller-Hinton agar, overnight, no colonies
[16] = 50 mM ammonium acetate pH 7.4, 0–35% 2-propanol gradient, calibrated retention times, UV
[17] = pH 7.4, 0–35% 2-propanol gradient, value in parentheses

With VRLIVAVRIWRR-NH2 [IDR, IDR-1018] the MBC (E. faecalis WW6 [1]) was 64 (42) µg/ml, the MBC (S. aureus DSM 1104 SCV [2]) was 128 (83) µg/ml and the MBC (E. faecium VRE2) was 32 (21) µg/ml. For the same substance, the “Haemolysis at 5 μM” value (human erythrocytes; 5 μM peptide) was 18%, the “Haemolysis at 10 μM” value (human erythrocytes; 10 μM peptide) was 28% and the “1h LD50” value (Danio rerio embryos; 1 hour exposure) was 15 µg/mL. For the same substance, the “3h LD50” value (Danio rerio embryos; 3 hours exposure) was 11 µg/mL, the MBC (S. aureus MRSA4) was > 256 µg/mL and the MBC (S. aureus MRSA9) was 128 (83) µg/ml. The MBIC90 (S. aureus DSM 1104 SCV [3]) was 83 µM, the MBC (E. faecalis TRE1) was 64 (42) µg/ml and the MBC (S. aureus DSM 1104 [4]) was 128 (83) µg/ml. The MBC (E. faecalis WW4) was 64 (42) µg/ml, the MBC (E. faecalis TRE4) was 16 (10) µg/ml and the MBC (E. faecalis TRE2 [5]) was 128 (83) µg/ml. The MBC (S. aureus MRSA8 SCV [6]) was 128 (83) µg/ml, the MBC (S. aureus MRSA538 SCV) was 128 (83) µg/ml and the MBC (S. aureus MRSA9 SCV) was 128 (83) µg/ml. For the same substance, the “Bound AGP” value [7, 16] was 93.37%, the “log k AGP” value [7, 17] was 1.09 and the MBC (S. aureus MRSA3) was 128 (83) µg/ml. For the same substance, the MBC (E. faecalis DSM 2570 [8]) was 64 (42) µg/ml, the MBIC90 (E. faecalis WW6 [9]) was > 256 µg/mL and the MBIC90 (S. aureus MRSA8 SCV [10]) was 42 µM. It also gave an MBIC90 (S. aureus DSM 1104 [11]) of 42 µM, an MBIC90 (E. faecalis DSM 2570 [12]) of 167 µM and an MBIC90 (E. faecalis TRE2 [13]) of 167 µM. For the same substance, the chromatographic logD ([14]; pH 2.6) was -0.53, the chromatographic logD ([14]; pH 7.4) was 0.88 and the chromatographic logD ([14]; pH 10.5) was 4.43. The “Bound HSA” value [15, 16] was 97.98%, the “log k HSA” value [15, 17] was 1.51 and the MBC (E. faecium VRE1) was 32 (21) µg/ml.

Source: article PMC6884456, “Supreme activity of gramicidin S against resistant, persistent and biofilm cells of staphylococci and enterococci” (Scientific Reports, 2019)
